Measurements as given in patent US20070059688A1, “Gastrointestinal chemosensory receptors” (priority 2001, published 2007).
“Also recorded” adds a separate entry of the source.

What was measured:
STC-1 cells [1] = experiment: Ca2+ imaging of individual STC-1 cells (fura 2-AM) after bitter tastants; format: cell-based, mouse; details: for [Ca2+]i response in STC-1 cells (in words): single cells, FIG. 9 concentrations: PTC 3 mM, 6-PTU 1 mM, caffeine 10 mM, nicotine 10 mM, cycloheximide 50 μM
Description: The [Ca^2+]i of individual cells was measured before and after exposure to single concentrations of bitter tastants. Top panel. […] The values in parenthesis are the number of cells analyzed. Lower panels. Individual traces of [Ca^2+], from two cells exposed to denatonium benzoate or cycloheximide.
Due to heterogeneity of the STC-1 cell population, we monitored responses in the intracellular Ca^2+ concentration ([Ca^2+]i) using Ca^2+ imaging of individual cells and tested the effect of several compounds widely used in bitter taste signaling.
The concentrations of denatonium used in these experiments are similar to those used for eliciting second messenger changes and ion channel activity in taste tissues.
Since a low level of mT2R5 expression was also detected in STC-1 cells, we determined if cycloheximide stimulates a [Ca^2+]i response in these cells.

IEC-18 cells = experiment: [Ca2+]i changes in IEC-18 cells; format: cell-based, rat; details: FIG. 10B: 5 mM denatonium benzoate, vasopressin as positive control
Description: (§1) (A) STC-1 cells, grown on cover slips, were washed with a buffer solution (buffer A) consisting of Hanks' balanced salt solution supplemented with 0.03% NaHCO3, 1.3 mM CaCl2, 0.5 mM MgCl2, 0.4 mM MgSO4, and 0.1% BSA. After washing, cells were incubated with […] methyl ester (fura-2/AME) from a stock of 1 mM in DMSO for 30 min at room temperature. Cells were then washed again with buffer A and left at room temperature for an additional 30 min. Each cover slip was placed in a glass cuvette with 2 ml of buffer A, and fluorescence was measured continuously in a Hitachi F-2000 fluorospectrophotometer with excitation wavelength of 340 and 380 nm and an emission wavelength of 510 nm. The bars represent the increase in [Ca^2+]i in response to various concentrations of denatonium benzoate (DB), as indicated. (B) [Ca^2+]i changes in IEC-18 cells, a normal rat intestinal epithelial cell line, after sequential addition of 5 mM denatonium benzoate (DB) followed by 50 nM vasopressin (VP), added as a positive control. (C) [Ca^2+]i changes in Swiss 3T3 cells after sequential addition of 5 mM denatonium benzoate (DB) followed by 10 nM bombesin (Bom), added as a positive control. The changes in [Ca^2+]i in IEC-18 and Swiss 3T3 cells were measured as described above for STC-1 cells.

[2] = molecular target: T1, chimeric mT2R5 receptors containing the NH2-terminal 39 amino acids of rhodopsin (Mus musculus, UniProt Q9JKT4); details: HEK-293 cells; Chandrashekar et al, Cell 100:703-711 (2000); cited from earlier work
T1 construct: host or cells: HEK-293 (heterologous expression)
T1 sequence (Q9JKT4 with tags, fused parts or gaps): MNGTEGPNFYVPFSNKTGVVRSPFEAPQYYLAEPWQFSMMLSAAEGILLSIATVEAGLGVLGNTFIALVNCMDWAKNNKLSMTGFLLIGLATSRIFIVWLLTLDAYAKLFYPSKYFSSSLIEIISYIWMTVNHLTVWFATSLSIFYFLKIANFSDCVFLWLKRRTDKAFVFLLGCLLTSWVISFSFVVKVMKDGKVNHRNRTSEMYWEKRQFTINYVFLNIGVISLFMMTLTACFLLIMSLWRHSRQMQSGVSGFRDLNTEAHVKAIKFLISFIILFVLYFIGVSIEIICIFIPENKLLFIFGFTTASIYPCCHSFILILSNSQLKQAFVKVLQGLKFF

STC-1 cells [3] = experiment: [Ca2+]i in STC-1 cells on cover slips, fura-2 fluorospectrophotometry; format: cell-based, mouse; details: various concentrations of denatonium benzoate, FIG. 10A
Description: as §1

Compound | [Ca2+]i response in STC-1 cells (in words) (STC-1 cells [1]) | [Ca2+]i response in IEC-18 cells (in words) (IEC-18 cells) | further results
CCCc1cc(=O)[nH]c(=S)[nH]1 [6-n-propil-2-thiouracil] | robust [Ca^2+]i responses; also recorded: promoted rapid [Ca^2+]i responses | not in other well studied cell lines such as IEC-18 or 3T3 | –
CN1[C@@H]2CC[C@H]1C[C@@H](OC(=O)C(CO)c1ccccc1)C2 (some centres unmarked) [atropine] | did not induce any detectable change | – | –
O=C(O)/C=C/c1ccc(O)c(O)c1 [caffeic acid] | did not induce any detectable change | – | –
Cn1c(=O)c2c(ncn2C)n(C)c1=O [caffeine] | robust [Ca^2+]i responses | – | –
C[C@@H]1C[C@@H]([C@H](O)CC2CC(=O)NC(=O)C2)C(=O)[C@@H](C)C1 [cycloheximide] | induced oscillatory changes in [Ca^2+]i in a small sub-population of STC-1 cells; also recorded: promoted rapid [Ca^2+]i responses | not in other well studied cell lines such as IEC-18 or 3T3 | mT2R5 response, increase in [Ca2+]i (in words) [2]: responds
CC[N+](CC)(CC(=O)Nc1c(C)cccc1C)Cc1ccccc1 [denatonium benzoate] | rapid and dose-dependent elevation | not in other well studied cell lines such as IEC-18 or 3T3 | cells with increase in [Ca2+]i (STC-1 cells [1]; 1 mM, percentage of the STC-1 population): 33%; cells with marked increase in [Ca2+]i (STC-1 cells [1]; 10 mM, percentage of STC-1 cells examined): 97%; [Ca2+]i response in STC-1 cells (in words) (STC-1 cells [1]; listed as denatonium): promoted rapid [Ca^2+]i responses; increase in [Ca2+]i in STC-1 cells (in words) (STC-1 cells [3]): dose-dependent increase
CN1CCCC1c1cccnc1 (centres unmarked) [nicotine] | robust [Ca^2+]i responses | – | –
NC(=S)Nc1ccccc1 [phenylthiocarbamide] | robust [Ca^2+]i responses; also recorded: promoted rapid [Ca^2+]i responses | not in other well studied cell lines such as IEC-18 or 3T3 | –
